These are literature values, as cited in US20050004032A1, “Collagen mimics” (priority 2003, published 2005).

In the case of (ProProGly)10, the “melting temperature of a triple helix” value (Sakakibara et al. 1973) is 24 °C. With (ProProGly)7, the “Tm, temperature at the midpoint of the thermal transition as measured by CD spectroscopy” value (literature values per Table 1 footnotes b-f, some reported for the 10-repeat peptides) is on record as 6-7^c ° C.
